The source of these data is patent US11865119B2, “Methods of treating agitation and other dementia-associated behavioral symptoms” (Woolsey Pharmaceuticals, Inc., priority 2021, dated 2024).

The subject of experiment [1] is agitation in patients with Alzheimer's Dementia (AD). Nature of the experiment: Clinical trial of oral fasudil in reducing agitation in patients with Alzheimer's Dementia (CMAI, NPI-Q). Format: in vivo, human. As to conditions: cutoff moved from 0 to 35 in 5-point increments; FIG. 3. How it is done:
All the patients were treated for 6 weeks with 90 mg per day (30 mg TID) and a subset of patients was treated an additional 6 weeks with 180 mg per day (60 mg TID). […] A variety of assessments were conducted at baseline and at the end of treatment, including the NPI-Q and the CMAI.
Two baseline thresholds were set, and two analyses were done based on the two groupings that resulted. One threshold was based on the agitation/aggression domain of the NPI-Q and the other based on the CMAI score.
The first selection was based on NPI-Q score of ≥4.
The second selection required a baseline CMAI score of ≥20 and this yielded a 13-patient subgroup, having a mean baseline CMAI score of 34.4. […] All the patients selected using the NPI-Q agitation/aggression domain score of ≥4 were also included in this subgroup.
The analysis looked at the CMAI score prior to treatment and compared it to the last day of treatment (6 weeks for the 10 patients on the low dose and 12 weeks for the 3 patients on the high dose).
Finally, to examine the effects of changing the CMAI-C threshold, 5-point increments were used to move the cutoff from 0 to 35. […] It was concluded that setting the CMAI-C threshold of at least 5 provided a meaningful result over the population, even though higher thresholds we more powerful at detecting change.

For experiment [2], the system named is mice. To be noted: six-month old mice; 10 mg/kg oral gavage once a day for 30 days; assessed over final 3 days; vs water; cited from earlier work.

With `O=S(=O)(c1cccc2cnccc12)N1CCCNCC1` [fasudil], the “effect of changing the baseline CMAI-C threshold on magnitude of observed effect” value in experiment [1] was “As the threshold increased, so did the magnitude of the observed effect”. In addition, the “amount of time spent in the open arms of the maze” value in experiment [2] is “significantly reduced”.
